Measurements from US7777070B2, “Acyloxyalkyl carbamate prodrugs of tranexamic acid, methods of synthesis and use” (XenoPort, Inc., priority 2005, dated 2010).
Where two headings read alike, the source gives them in different places.

What was measured:
Caco-2 cells [1] = assay: Caco-2 cellular permeability; details: ratio of Papp apical to basolateral / basolateral to apical
Description: (§1) For example, passive permeability can be evaluated by examining the flux of a prodrug across a cultured polarized cell monolayer (e.g., Caco-2 cells).
(§2) Caco-2 cells obtained from continuous culture (passage less than 28) were seeded at high density onto Transwell polycarbonate filters. Cells were maintained with DMEM/10% fetal bovine serum, 1 mM nonessential amino acids, and 6 mM L-Gln, 5% CO2/95% O2, at 37° C. until the day of the experiment. Permeability studies were conducted at pH 6.5 apically (in 50 mM MES buffer containing 1 mM CaCl2, 1 mM MgCl2, 150 mM NaCl, 3 mM KCl, 1 mM NaH2PO4, 5 mM glucose) and pH 7.4 basolaterally (in Hanks' balanced salt solution containing 10 mM HEPES) in the presence of efflux pump inhibitors (250 μM MK-571 and 250 μM Verapamil). Inserts were placed in 12 or 24 well plates containing buffer and incubated for 30 min at 37° C. Prodrug (200 μM) was added to the apical or basolateral compartment (donor) and concentrations of prodrug and/or released parent drug in the opposite compartment (receiver) were determined at intervals over 1 hour using LC/MS/MS. Values of apparent permeability (Papp) were calculated using the equation: Papp=Vr(dC/dt)//(ACo) where Vr is the volume of the receiver compartment in mL; dC/dt is the total flux of prodrug and parent drug (μM/sec), determined from the slope of the plot of concentration in the receiver compartment versus time; C0 is the initial concentration of prodrug in μM; and A is the surface area of the membrane in cm^2.

[2] = cited from earlier work
[3] = cited from earlier work; remark: listed apart in the source
[4] = Pharmacokinetics of tranexamic acid after administration of tranexamic acid or prodrug to rats; assay type: in vivo, Sprague-Dawley rats; details: for AUC(0-inf) / bioavailability / Cmax / half-life / Tmax / AUC(0-t) / F* (bioavailability of tranexamic acid) / AUCinf / AUCt / T1/2-λ: rat; for bioavailability / F* (bioavailability of tranexamic acid): versus i.v. tranexamic acid AUCinf 22.2 hr·μg/mL; for bioavailability: read-out: F* (bioavailability of tranexamic acid); for half-life: read-out: T1/2-λ (converted)
Description: Tranexamic acid or a tranexamic acid prodrug of the present disclosure was administered as an intravenous bolus injection (i.v.), by oral gavage (p.o.), or by intracolonic (i.c.) administration via an indwelling catheter in the ascending colon to groups of four to six adult male Sprague-Dawley rats (weight approximately 250 g). Animals were fasted overnight before the study and for 4 hours post-dosing and were conscious at the time of the experiment. When administered intravenously, tranexamic acid was administered as a solution in water at a dose equivalent to 16 mg (0.1 mmol) of tranexamic acid per kg body weight. Prodrugs were orally or intracolonically administered as a suspension in 0.5% methyl cellulose in 0.1% Tween 80 at a dose equivalent to 16 mg (0.1 mmol) of tranexamic acid per kg body weight. Blood samples (300 μL) were obtained via a jugular vein cannula at intervals over 8 hours after oral dosing. Blood was quenched immediately using methanol and then was frozen at −80° C. until analyzed.
The following procedure was used to prepared blood samples for analysis:
1. Rat blood (100 μL) was collected at different times into K2EDTA tubes, 300 μL of methanol, and the mixture was vortexed to mix the ingredients.
2. Blank rat blood (90 μL) was quenched with 300 μL of methanol. Then ten μL of a standard stock solution (0.04, 0.2, 1, 5, 25, and 100 μg/mL) were added to the tube individually. Then 20 μL of p-chlorophenylalanine (5 μg/mL in 50% methanol) was added to each tube to make up a final calibration standard (0.004, 0.02, 0.1, 0.5, 2.5, and 10 μg/mL). The samples were vortexed and centrifuged at 14,000 rpm for 20 min.
3. To the quenched blood samples were added 20 μL of p-chlorophenylalanine (5 μg/mL in 50% methanol), the samples were vortexed and centrifuged at 14,000 rpm for 20 min.
4. The supernatant was analyzed by LC/MS/MS.
The following method was used for LC/MS/MS Analysis of the prepared blood samples. An API 4000 or 2000 LC/MS/MS spectrometer equipped with Agilent 1100 binary pumps and a CTC HTS-PAL autosampler were used in the analysis. A ThermoHypersil-BetaSil C18, 100×4.6 mm, 5 μm column was used during the analysis. The mobile phase for the analysis of tranexamic acid and prodrug was (A) 0.1% formic acid in water, and (B) 0.1% formic acid in acetonitrile. The gradient condition was: 2% eluent-B to 95% eluent-B for 2.5 min, then to 98% eluent-B to 4.0 min. At 4.1 min, it was returned to 2% eluent-B and maintained at 2% eluent-B till 6.0 min. The flow rate was 1 mL/min. An ESI source was used on the API 4000. The analysis of tranexamic acid was performed in positive ion mode for and negative ion mode was used for analysis of tranexamic acid prodrugs.
The MRM transition for each analyte was optimized using standard solutions. 20 μL of the sample was injected. Non-compartmental analysis was performed using WinNonlin (v.3.1 Professional Version, Pharsight Corporation, Mountain View, Calif.) on individual animal profiles. Summary statistics on major parameter estimates was performed for Cmax (peak observed concentration following dosing), Tmax (time to maximum concentration is the time at which the peak concentration was observed), AUC(0-t) (area under the serum concentration-time curve from time zero to last collection time, estimated using the log-linear trapezoidal method), AUC(0-∞), (area under the serum concentration time curve from time zero to infinity, estimated using the log-linear trapezoidal method to the last collection time with extrapolation to infinity), and t1/2 (terminal half-life).
The oral or intracolonic bioavailability (F) of tranexamic acid was determined by comparing the area under the tranexamic acid concentration vs. time curve (AUC) following oral or intracolonic administration of tranexamic acid or prodrug with the AUC of the tranexamic acid concentration vs. time curve following intravenous administration of tranexamic acid on a dose normalized basis. […]

Caco-2 cells [5] = test system: Caco-2 cells
Description: as §1, §2

[6] = male, Sprague-Dawley, whole blood, po, tranexamic acid in blood, dose equivalent to 16 mg/kg, mean (SD)
[7] = male, Sprague-Dawley, whole blood, tranexamic acid in blood, i.c., dose equivalent to 16 mg/kg, mean (SD)
[8] = tranexamic acid in blood, i.c., dose equivalent to 16 mg/kg, mean (SD)
[9] = tranexamic acid in blood, p.o., dose equivalent to 16 mg/kg, mean (SD)

In the case of CCCC(=O)OC(C)OC(=O)NC[C@H]1CC[C@H](C(=O)O)CC1 (relative stereo) [Compound 10, trans-4-{[1-(Butanoyloxy)ethoxycarbonyl]aminomethyl}-Cyclohexanecarboxylic Acid], the “Ratio A-B/B-A” value (Caco-2 cells [1]) is reported as 4.9.
With CCCC(OC(=O)NC[C@H]1CC[C@H](C(=O)O)CC1)OC(=O)C(C)C (relative stereo) [Compound 36, trans-4-{[1-(2-Methylpropanoyloxy)butoxycarbonyl]aminomethyl}-Cyclohexanecarboxylic Acid] the “Ratio A-B/B-A” value (Caco-2 cells [1]) was 4.5.
In the case of CCCCC(=O)OC(OC(=O)NC[C@H]1CC[C@H](C(=O)O)CC1)C(C)C (relative stereo) [Compound 42, trans-4-{[1-(Pentanoyloxy)-2-methylpropoxycarbonyl]aminomethyl}-Cyclohexanecarboxylic Acid], the “Ratio A-B/B-A” value (Caco-2 cells [1]) is reported as 2.9.
In the case of CC(C)C(OC(=O)NC[C@H]1CC[C@H](C(=O)O)CC1)OC(=O)C1CCCCC1 (relative stereo) [Compound 48, trans-4-{[1-(Cyclohexylcarbonyloxy)-2-methylpropoxycarbonyl]aminomethyl}-Cyclohexanecarboxylic Acid], the “Ratio A-B/B-A” value (Caco-2 cells [1]) is reported as 3.1.
With CC(C)C(OC(=O)NC[C@H]1CC[C@H](C(=O)O)CC1)OC(=O)c1ccccc1 (relative stereo) [Compound 49, trans-4-{[1-(Benzoyloxy)-2-methylpropoxycarbonyl]aminomethyl}-Cyclohexanecarboxylic Acid] the “Ratio A-B/B-A” value (Caco-2 cells [1]) was 2.9.
For CCOC(=O)OC(C)OC(=O)[C@H]1CC[C@H](CN)CC1 (relative stereo) [Kabi 2161, 1-(ethoxycarbonyl)oxyethyl trans-4-(aminomethyl)-cyclohexanecarboxylate], the “oral bioavailability of tranexamic acid from prodrug” value ([2]; human patients, oral) is listed as “markedly improved” and the “effect on menstrual blood loss” value ([3]; women suffering from idiopathic menorrhagia) is listed as “effective in reducing menstrual blood loss”.
In the case of CC(C)CC(=O)OC(C)OC(=O)NC[C@H]1CC[C@H](C(=O)O)CC1 (single isomer, unassigned) [Compound 19, trans-4-{[1-(3-Methylbutanoyloxy)ethoxycarbonyl]aminomethyl}-Cyclohexanecarboxylic Acid], the “Ratio A-B/B-A” value (Caco-2 cells [1]) is reported as 5.2.
For CC(OC(=O)NC[C@H]1CC[C@H](C(=O)O)CC1)OC(=O)c1ccccc1 (single isomer, unassigned) [Compound 23, trans-4-{[1-(Benzoyloxy)ethoxycarbonyl]aminomethyl}-Cyclohexanecarboxylic Acid], the “Ratio A-B/B-A” value (Caco-2 cells [1]) was 4.5.
With CC(C)C(=O)OC(OC(=O)NC[C@H]1CC[C@H](C(=O)O)CC1)C(C)C (single isomer, unassigned) [Compound 44, trans-4-{[1-(2-Methylpropanoyloxy)-2-methylpropoxycarbonyl]aminomethyl}-Cyclohexanecarboxylic Acid] the “Ratio A-B/B-A” value (Caco-2 cells [1]) was 2.2.
In the case of NC[C@H]1CC[C@H](C(=O)O)CC1 [Compound 1, trans-4-(aminomethyl)-cyclohexanecarboxylic acid, reference compound], the “absorption following rectal administration” value ([2]; rectal administration in humans (Almer et al.)) is listed as “poorly absorbed”, the oral bioavailability ([2]; tranexamic acid, oral) is listed as about 30% and the terminal elimination half-life ([2]; tranexamic acid) is listed as about 2 h. It also gave an AUC(0-inf) ([4]; male, Sprague-Dawley, whole blood, iv, intravenously administered tranexamic acid, 16 mg/kg) of 22200 ng·h/mL, a bioavailability ([4]; male, Sprague-Dawley, whole blood, other: intracolonic, 16 mg/kg, i.c., mean (SD)) of 5% and a bioavailability ([4]; male, Sprague-Dawley, whole blood, po, 16 mg/kg, p.o., mean (SD)) of 37%. The Cmax ([4]; male, Sprague-Dawley, whole blood, po, tranexamic acid in blood, p.o., dose equivalent to 16 mg tranexamic acid per kg, mean (SD), read-out: Cmax) was 2060 ng/mL, the half-life ([4]; male, Sprague-Dawley, whole blood, po, tranexamic acid in blood, p.o., dose equivalent to 16 mg/kg, mean (SD)) was 1.9 h and the Tmax ([4]; male, Sprague-Dawley, whole blood, po, tranexamic acid in blood, p.o., dose equivalent to 16 mg/kg, mean (SD), read-out: Tmax) was 1.1 h. The AUC(0-inf) [4, 6] was 7800 ng·h/mL, the AUC(0-t) [4, 6] was 7300 ng·h/mL and the Cmax ([4]; male, Sprague-Dawley, whole blood, tranexamic acid in blood, i.c. (intracolonic), dose equivalent to 16 mg/kg, mean (SD), read-out: Cmax) was 220 ng/mL. For the same compound, the AUC(0-inf) [4, 7] was 800 ng·h/mL, the AUC(0-t) [4, 7] was 600 ng·h/mL and the half-life [4, 7] was 1.7 h. The Tmax ([4]; male, Sprague-Dawley, whole blood, tranexamic acid in blood, i.c., dose equivalent to 16 mg/kg, mean (SD), read-out: Tmax) was 3.1 h, the “reduction of menstrual blood loss” value ([3]; women with menorrhagia) was about 50% and the “Ratio A-B/B-A” value (Caco-2 cells [1]) was 1.3.
In the case of CC(C)C(=O)OCOC(=O)NC[C@H]1CC[C@H](C(=O)O)CC1 [Compound 4, trans-4-{[(2-Methylpropanoyloxy)methoxycarbonyl]aminomethyl}-Cyclohexanecarboxylic Acid], the “Ratio A-B/B-A” value (Caco-2 cells [1]) is reported as 7.7.
For O=C(NC[C@H]1CC[C@H](C(=O)O)CC1)OCOC(=O)c1ccccc1 [Compound 7, trans-4-{[(Benzoyloxy)methoxycarbonyl]aminomethyl}-Cyclohexanecarboxylic Acid], the “Ratio A-B/B-A” value (Caco-2 cells [1]) was 4.2.
In the case of CC(OC(=O)NC[C@H]1CC[C@H](C(=O)O)CC1)OC(=O)C(C)C (stereo partly drawn) [Compound 13, trans-4-{[1-(2-Methylpropanoyloxy)ethoxycarbonyl]-aminomethyl}-Cyclohexanecarboxylic Acid], the “F* (bioavailability of tranexamic acid)” value ([4]; i.c., mean (SD)) is reported as 98 (10) %, the “levels of prodrug following oral gavage administration” value ([4]; intact prodrug in blood, oral gavage, rat (FIG. 2)) is reported as “below the level of detection” and the “F* (bioavailability of tranexamic acid)” value ([4]; p.o., mean (SD)) is reported as 73 (9) %. For the same compound, the Cmax ([4]; tranexamic acid in blood, i.c. (intracolonic), dose equivalent to 16 mg/kg, mean (SD)) was 7.82 (5.2) μg/mL, the AUCinf [4, 8] was 21.8 µg·h/mL and the AUCt [4, 8] was 21.5 (2.3) hr · μg/mL. The T1/2-λ [4, 8] was 4.2 (0.8) h, the Tmax [4, 8] was 0.5 (0.1) h and the Cmax ([4]; tranexamic acid in blood, p.o., dose equivalent to 16 mg tranexamic acid per kg, mean (SD)) was 5.64 (0.58) μg/mL. For the same compound, the AUCinf [4, 9] was 17.1 (2.0) hr · μg/mL, the AUCt [4, 9] was 15.7 (2.0) hr · μg/mL and the T1/2-λ [4, 9] was 2.2 (0.2) h. The Tmax [4, 9] was 0.8 (0.3) h and the “Ratio A-B/B-A” value (Caco-2 cells [1]) was 4.8.
With CC(OC(=O)NC[C@H]1CC[C@H](C(=O)[O-])CC1)OC(=O)C(C)C.[Na+] (stereo partly drawn) [Compound 14, Sodium trans-4-{[1-(2-Methylpropanoyloxy)ethoxycarbonyl]-aminomethyl}-Cyclohexanecarboxylate] the “Ratio A-B/B-A” value (Caco-2 cells [5]) was 3.4.
In the case of CC(C)C(=O)O[C@H](C)OC(=O)NC[C@H]1CC[C@H](C(=O)O)CC1 [Compound 15, (+)-trans-4-({[(S)-1-(2-Methylpropanoyloxy)ethoxy]carbonylamino}methyl)-Cyclohexanecarboxylic Acid], the “Ratio A-B/B-A” value (Caco-2 cells [1]) is reported as 6.1.
With CC(C)C(=O)O[C@@H](C)OC(=O)NC[C@H]1CC[C@H](C(=O)O)CC1 [Compound 17, (−)-trans-4-({[(1R)-1-(2-Methylpropanoyloxy)ethoxy]carbonylamino}methyl)-Cyclohexanecarboxylic Acid] the “Ratio A-B/B-A” value (Caco-2 cells [1]) was 4.0.
